Experimental data published in patent US9532982B2, “Pharmaceutical combination comprising a phosphatidylinositol 3-kinase inhibitor and/an aromatase inhibitor” (Novartis AG, priority 2012, dated 2017).

How the values were obtained:
[1] = tested on: MCF7/Aro human breast carcinoma cells; test: Δ4A induced MCF7/Aro cell proliferation (CellTiter-Glo), Compound A and letrozole, Example 2; format: cell-based; conditions: 10 nM Δ4A, 5 days, vs DMSO control
Method: (§1) Synergy is calculated by comparing a combination's response to those of its single agents, against the drug-with-itself dose-additive reference model.

[2] = tested on: MCF7/Aro human breast carcinoma cells; test: Δ4A induced MCF7/Aro cell proliferation (CellTiter-Glo), Compound A and exemestane, Example 1; format: cell-based; conditions: 10 nM Δ4A, 5 days, vs DMSO control
Method: as §1

Cc1nc(NC(=O)N2CCC[C@H]2C(N)=O)sc1-c1ccnc(C(C)(C)C(F)(F)F)c1 [Compound A, (S)-Pyrrolidine-1,2-dicarboxylic acid 2-amide 1-({4-methyl-5-[2-(2,2,2-trifluoro-1,1-dimethyl-ethyl)-pyridin-4-yl]-thiazol-2-yl}-amide)]
maximum level inhibition of Δ4A-driven cell proliferation, single agent [1]: 61%
maximum level inhibition of Δ4A-driven cell proliferation, single agent [2]: 61%

C=C1C[C@@H]2[C@H](CC[C@]3(C)C(=O)CC[C@@H]23)[C@@]2(C)C=CC(=O)C=C12 [exemestane]
maximum level inhibition of Δ4A-driven cell proliferation, single agent [2]: 33%

N#Cc1ccc(C(c2ccc(C#N)cc2)n2cncn2)cc1 [letrozole]
maximum level inhibition of Δ4A-driven cell proliferation, single agent [1]: 53%
